Source: patent publication US20210186972A1, “FORMULATIONS AND METHODS FOR THE PREVENTION AND TREATMENT OF TUMOR METASTASIS AND TUMORIGENESIS” (THE UNITED STATES OF AMERICA, AS REPRESENTED BY THE …, priority 2018, published 2021)
Where two headings read alike, the source gives them in different places.

Columns and labels:
NSG PANC1 mice = experiment: Orthotopic pancreatic cancer metastasis model, daily IP treatment; format: in vivo
Protocol: Because pancreatic cancer patients suffer particular high mortality from metastasis, the in vivo efficacy of metarrestin against metastasis in an orthotopic pancreatic cancer metastasis model was evaluated. The 3D PANC1 cell spheres model, deployed in NOD/interleukin 2 receptor common gamma chain (Il2rγ)^null (NSG) PANC-1 mice (see Suemizu et al., “Identification of a key molecular regulator of liver metastasis in human pancreatic carcinoma using a novel quantitative model of metastasis in NOD/SCID/gammacnull (NOG) mice.” Int. J. Oncol., (31): 741-51 (2007), incorporated herein in its entirety), recapitulates human cancer progression and metastatic phenotype of the disease without the limitations of early death due to complications of local invasion, such as gastric outlet obstruction or impingement of the common bile duct. Sixty thousand 3D luciferase-expressing PANC1-luc cell spheres were injected orthotopically into the pancreas of NSG mice. […] By 8 weeks, macrometastasis on the liver surface were visible.
Four weeks after inoculation, mice were treated once daily with metarrestin (5 mg/kg or 25 mg/kg) or vehicle via IP injections, continuing for six weeks. […] The treatment was well-tolerated, and animals maintained their body weight (FIG. 11).
To determine whether PNCs in treated animals were impacted by metarrestin, PNC prevalence in primary tumors and metastatic lesions from control and metarrestin-treated animals (25 mg/kg) were examined 12 weeks after tumor inoculation. […] PNC prevalence in non-treated animals was higher in these groups of tumors and metastatic lesions than in those harvested at an earlier time (FIG. 6) or in cultured PANC1 cells (FIG. 2), consistent with previous findings that late-stage cancers have higher PNC prevalence.
Pancreatic cancer model: 60,000 luciferase-tagged PANC1 spheres were injected into the pancreas of Nod/IL2gamma (null) mice (obtained from NCI Mouse Repository, Frederick, Md.; on ACUC-approved animal protocol SB-211-2). At 4 weeks after inoculation, mice were treated once daily with metarrestin (5 mg/kg or 25 mg/kg) or vehicle via IP injections, which extended out for 6 more weeks. Mice were injected with luciferin 5 minutes before being sacrificed by CO2 euthanasia. Organs were then individually dissected, subjected to quantitative xenogene imaging, and fixed with 4% non-buffered formaldehyde. Impact of metastatic burden was calculated and graphed as liver and lung/primary tumor ratios based on a five-minute photon count for the liver normalized to liver weight (g), which was then compared to the average photon count per weight (g) of the primary pancreatic tumor of the same animal. This calculation corrects for variations in luciferin injection, mouse heart rate, and perfusion. For overexpression of eEF1A2, 6*10^4 PANC1 3D spheres transduced with eEF1A2 (eEF1A2 OE) were injected into the tail of the pancreas of NSG mice. Mice of both groups were harvested at 6 weeks after implantation and subjected to necropsy. Liver metastasis/mm^2 was calculated as the sum of the […] of the individual metastases. Tumor volume (mm^3) was calculated as (L×W2), where L=length (mm) and W=width (mm). Animal survival was measured from the first day of treatment until death. […]

[1] = parameters: species or system NSG PANC1 mice; conditions: NSG (Nod/IL2gamma null), mouse, in vivo, po, 10 mg/kg, 1 h
C57B/L6 = format: in vivo, mice
PC3M xenograft mice = experiment: PC3M xenograft prostate cancer model; format: in vivo
Protocol: Metarrestin was tested in PC3M xenograft mice to determine whether metarrestin's anti-metastasis activity (observed in the NSG PANC1 mice and in vitro pan-cancer PNC suppression) translates into anti-metastasis activity in additional cancer models. Two weeks after subcutaneous implantation of PC3M cells, mice were started on 5 mg/kg or 25 mg/kg metarrestin or vehicle by daily IP injection for 4 additional weeks. Tumor progression was tracked by both in vivo imaging systems (“IVIS”) spectroscopy and tumor volume. Metastasis to the lungs was evaluated ex vivo through IVIS spectroscopy and by histopathology at the experimental endpoint. […] To evaluate the effect of metarrestin on a malignant xenograft considered closest to in vivo conditions, a patient-derived breast cancer xenotransplantation model (PDX) was used. Metastatic breast cancer cells harvested from the pleural fluid of a stage IV ductal breast cancer patient were inoculated into mice, and third generation mouse-passaged tumors were transplanted into the mammary fat pad of NOD.Cg-Prkdc^scid Il2rg^tm1Sug/JicTac mice. Treatment with metarrestin started after the tumors reached 150-200 mm^3. Metarrestin (25 mg/kg) or vehicle was administered daily by IP injection for 4 weeks with a 5-day on and 2-day off schedule. Tumor size and total body weight were measured twice a week, and tumor weight was measured at experimental end-point.
Prostate cancer model: Mice were implanted in the flank with 3×10^6 human PC-3M-luc-C6 […] tumor cells (Caliper Life Sciences) and split into 4 groups of 10 mice. Dosing with 5 or 25 mg/kg drug or vehicle alone (negative control) was initiated after 2 weeks and continued until the experimental endpoint, 6 weeks after implantation. Primary tumor size (measured with calipers), live tumor cell content (measured by biophotonic imaging), and total body weight were determined each week. At the endpoint, animals were euthanized, metastatic organs removed, and metastases quantitated by biophotonic imaging of the organs.

[2] = 5 or 25 mg/kg IP once daily for six weeks
[3] = female, C57B/L6, mouse, in vivo
[4] = female, C57B/L6, mouse, in vivo, 3 months
[5] = male, C57B/L6, mouse, in vivo, 3 months

## N=c1c2c(-c3ccccc3)c(-c3ccccc3)n(Cc3ccccc3)c2ncn1[C@H]1CC[C@H](O)CC1 [metarrestin]
NSG PANC1 mice; 25 mg/kg IP once daily for six weeks, vs vehicle, p<0.01
  Metastatic burden in liver: decrease in metastatic burden
NSG PANC1 mice; 25 mg/kg IP once daily for six weeks, vs vehicle, p<0.05
  Metastatic burden in lung: decrease in metastatic burden
NSG PANC1 mice; 25 mg/kg, 12 weeks after tumor inoculation, p<0.01
  PNC prevalence in metastatic and primary tumor tissues: significant reduction of PNC prevalence
NSG PANC1 mice; [2]
  Primary tumor weight: not significantly changed
  Tolerability, body weight: well-tolerated
[1]
  Concentration in primary tumors above the IC90 of 0.75 μM: more than 10 fold
C57B/L6; C57B/L6 Metarrestin Female F03
  Kidney regeneration, tubule: 1/4
C57B/L6; C57B/L6 Metarrestin Male M03
  Brain hemorrhage: 1/4
  Epididymis aspermia: 1/4
  Kidney regeneration, tubule: 3/4
C57B/L6; [3]
  Gall Bladder inflammation, acute: 3/4
  Ileum segmented filamentous bacteria: 3/4
C57B/L6; [4]
  Adrenal hyperplasia, subcapsular cell: 3/4
  Kidney dilatation, tubule: 3/4
  Kidney infarct: 1/4
  Kidney mineralization: 2/4
  Liver inflammation, subacute: 4/4
  Lung lymphocytic infiltrate: 4/4
  Spleen extramedullary hematopoiesis, erythrocytic, increased erythropoiesis: 2/4
C57B/L6; male, C57B/L6, mouse, in vivo
  Cecum proliferative typhlitis: 1/4
  Femur marrow hyperplasia, granulocytic: 1/4
  Gall Bladder inflammation, acute: 3/4
  Heart mineralization: 1/4
C57B/L6; [5]
  Adrenal lipogenic pigment: 4/4
  Ileum segmented filamentous bacteria: 3/4
  Kidney dilatation, tubule: 2/4
  Kidney mineralization: 2/4
  Kidney vacuolation. proximal tubule: 1/4
  Liver inflammation, subacute: 3/4
  Lung lymphocytic infiltrate: 3/4
  Spleen melanin: 1/4
  Testis degeneration, seminiferous tubule: 1/4
  Thymus cyst: 1/4
  Vertebra hyperplasia, granulocytic, marrow: 1/4
PC3M xenograft mice; 25 mg/kg daily IP for 4 weeks
  Growth of primary tumor xenografts: modestly reduced growth
PC3M xenograft mice; 25 mg/kg daily IP for 4 weeks, P<0.05 vs vehicle
  Lung metastasis: decreased development of lung metastasis
PC3M xenograft mice; daily IP for 4 weeks
  Body weight and behavior: not significantly different
